Consider ten compounds from patent US10718769B2, “Compounds comprising one or more hydrophobic domains and a hydrophilic domain comprising peg moieties, useful for binding cells” (Roche Diagnostics Operations, Inc., priority 2013, dated 2020).

Several values for one entry are separate records, joined by “and”; a condition that tells them apart may be missing. Equal values may be shown once. Read-outs that look alike come from different tables or passages of the source.

One experiment relates to white blood cells (WBCs). The following applies: for WBC per well: 300 000 WBCs/well. Here is the method:
Aim of this experiment: Testing of the white blood cell immobilization on a streptavidin-coated surface using different molecules of the invention. In particular, the performance of a single cholesterol-molecule and different dual-linker molecules (i.e. containing two hydrophobic moieties) was tested. In detail, immobilization of white blood cells (WBCs) on a Streptavidin-coated surface using different linker molecules was tested on a 12-well plate: 300 000 WBCs/well. This was followed by the measurement of the cell recovery rate after immobilization and washing of the cells using the Cellavista instrument (10× Nuclei Operator s9s5).

Another experiment concerns WBC (white blood cells). The following applies: for MW (mean WBC per well): target: 300.000 WBC. Here is the method:
4× determination. Row A: 200 μl PBS introduced, 1 nmol of compound added thereto respectively, mixed, incubated about 30 min, washed 2×PBS, 800 μl PBS introduced, 300.000 WBC (untreated) added. Row B: 800 μl PBS introduced, 300.000 WBC (untreated) added. Row C: 10×10^6 WBC in 1 ml with 10 nmol compound of invention 10 min incubated, 800 μl PBS/Well introduced, 300.000 treated WBC respectively. The first MTP plate washed after 30 min 2× with PBS, overlayed with Höchst and incubated for 15 min.>Cellavista (Operator s9s5) measured. The second plate was measured after 90 min. The third plate was measured after 150 min.
The experiments were performed for different incubation times, as shown below:
As starting material 5′-(Cholesteryl-TEG)2-PEG2000-Fluos-Biotin_TEG-3′ INVERS
(14530 pmol/μl) (Internal Reference No.: 29.891250), and a streptavidin treated MTP (Microcoat), 12 Well plate were used.
Erythrocyte lysis was performed as follows:
EDTA-whole blood 59.423 6.400 WBC/μl (Ambulanz Roche)
lysis buffer: 100 mM NH4Cl+5 mM Hepes+0.5 mM KHCO3+0.1 mM EDTA-K
Ca 1×8 ml whole blood filled in 50 ml Falcon tube with lysis buffer, incubate at room temperature for 10 min
15 min at 250 g centrifugated, pellet resuspended by pipetting in and out in lysis buffer; filled to 50 ml with lysis buffer
15 min 250 g centrifugated, pellet resuspended with PBS, filled to 50 ml with PBS, 15 min 250 g centrifugated, filled to 50 ml with PBS
The design of the experiment on the plate is explained below (see FIG. 2):
3×12 Well MTP: Treatment of the WBC with compounds of the invention:
Row A: 200 μl PBS introduced, 1 nmol of compound added thereto respectively, mixed, incubated about 30 min, washed 2×PBS,
800 μl PBS introduced, 300.000 WBC (untreated) added.
Row B: 800 μl PBS introduced, 300.000 WBC (untreated) added.
Row C: 10×10^6 WBC in 1 ml with 10 nmol compound of invention 10 min incubated, 800 μl PBS/Well introduced, 300.000 treated WBC respectively.
The first MTP plate washed after 30 min 2× with PBS, overlaid with Höchst and incubated for 15 min.>Cellavista (Operator s9s5) measured.
The second plate was measured after 90 min.
The third plate was measured after 150 min.

A further experiment deals with MDA-MB468. The experiment can be described thus: Labelling of cells using compounds of the invention. Format: cell-based. The text has this:
(§1) 2. Labelling of Cells Using Compounds of the Invention

For another experiment, the system named is Epithelial cells. The experiment is described as above. Format: cell-based.
Text: as §1

The test system of a further experiment is WBCs. The experiment is described as above. Format: cell-based.
Text: as §1

The subject of the next experiment is U937. The description is as above. In kind it is cell-based.
Text: as §1

Another experiment deals with WBC. The experiment can be described thus: WBC recovery rate after centrifugation (stabilization of cells, Example 5). In kind it is cell-based. The following applies: centrifugation 10 min, 300×g. Here is the method: (§2) Centrifugation characteristics: 10 min, 300×g.
as §2
The respective left, middle and right columns per assay represent different Experimenters 1, 2 and 3. […] Centrifugation characteristics: 10 min, 300×g. Molecule: Cholesteryl-TEG-Cholesteryl-TEG-(SpacerC18)7-Fluos-Biotin-TEG.
Following molecules were tested: 1234: 5′-(Cholesteryl-TEG)2-Spacer C18-dT-Biotin-TEG-3′; 1248: 3′-(Cholesteryl-TEG)2-PEG2000-Fluos-Biotin-TEG-5′ INVERS; 1254: 3′-(Cholesteryl-TEG)2-SpacerC18-Fluos-Biotin-TEG-5′ INVERS; 1255: 3′-(Myristic acid)2-PEG2000-dT-Biotin-TEG-5′ INVERS. […] Centrifugation characteristics: 20 min, 300×g. Respective left column: 10 min incubation with molecule. Respective middle column: 1 h min incubation with molecule. Respective right column: 2 h incubation with molecule.
Following molecules were tested: 1255: 3′-(Myristic acid)2-PEG2000-dT-Biotin-TEG-5′ INVERS; 1234: 5′-(Cholesteryl-TEG)2-Spacer C18-dT-Biotin-TEG-3′; 1248: 3′-(Cholesteryl-TEG)2-PEG2000-Fluos-Biotin-TEG-5′ INVERS; 1254: 3′-(Cholesteryl-TEG)2-SpacerC18-Fluos-Biotin-TEG-5′ INVERS. […] Centrifugation characteristics: 20 min, 500×g. Respective left column: 10 min incubation with molecule. Respective middle column: 1 h min incubation with molecule. Respective right column: 3 h incubation with molecule.
Following molecules were tested: 1255: 3′-(Myristic acid)2-PEG2000-dT-Biotin-TEG-5′ INVERS; 1234: 5′-(Cholesteryl-TEG)2-Spacer C18-dT-Biotin-TEG-3′; 1248: 3′-(Cholesteryl-TEG)2-PEG2000-Fluos-Biotin-TEG-5′ INVERS; 1254: 3′-(Cholesteryl-TEG)2-SpacerC18-Fluos-Biotin-TEG-5′ INVERS. […] Centrifugation characteristics: 20 min, 1000×g. Respective left column: 10 min incubation with molecule. Respective middle column: 1 h min incubation with molecule. Respective right column: 2 h incubation with molecule.
The effect of compounds of the invention on stabilizing cells and on immobilization was determined.
Centrifugation characteristics: 10 min, 300×g. A: Choleseryl-TEG-Cholesteryl-TEG-(SpacerC18)7-Fluos-Biotin-TEG.
Centrifugation characteristics: 10 min, 300×g. Molecule: Cholesteryl-TEG-Cholesteryl-TEG-(SpacerC18)7-Fluos-Biotin-TEG.
Centrifugation characteristics: 20 min, 300×g.
Following molecules were tested: • 1255: 3′-(Myristic acid)2-PEG2000-dT-Biotin-TEG-5′ INVERS • 1234: 5′-(Cholesteryl-TEG)2-Spacer C18-dT-Biotin-TEG-3′ • 1248: 3′-(Cholesteryl-TEG)2-PEG2000-Fluos-Biotin-TEG-5′ INVERS • 1254: 3′-(Cholesteryl-TEG)2-SpacerC18-Fluos-Biotin-TEG-5′ INVERS

The test system of another experiment is Hela. Nature of the experiment: Labelling of cells using compounds of the invention. In kind it is cell-based. The settings on record: * one cell stained weakly.
Text: as §1

The subject of the next experiment is CHO. The description is as above. In kind it is cell-based.
Text: as §1

[1] abbreviates: Sample 1, first block of the table (r4-r12), footnote: 1 nmol/10e6 WBCs.
The mark [2] stands for this setting: Sample 1, second block of the table (r13-r21), compound concentration: 1 nmol/10e6 WBCs.
[3] abbreviates: Sample 2, compound concentration: 100 pmol/10e6 WBCs.
Setting [4] is: Sample 2, compound concentration: 1 nmol/10e6 WBCs.

For the compound “5′-(Cholesterol-TEG)1-Doubler-dT-Biotin-3′ [29.891272]”, the “WBC per well” value in the experiment with white blood cells (WBCs) (setting [1]) was 147132 and 179643 and 181620; in the experiment on white blood cells (WBCs) (setting [2]) it was 199973 and 220701 and 228481; in the experiment with white blood cells (WBCs) (setting [3]), 161504 and 201424 and 196021; in the experiment on white blood cells (WBCs) (setting [4]), 241232 and 254894 and 246129. The “Mean (WBC per well)” value in the experiment on white blood cells (WBCs) (setting [3]) came to 186316.33; in the experiment on white blood cells (WBCs) (setting [4]), 247418.33.

For the compound “5′-(Cholesteryl-TEG)2-PEG2000-Fluos-Biotin_TEG-3′ INVERS [29.891250]”, the “Mean % / WBC recovery rate [%]” value in the experiment with WBC (white blood cells) (30 min, WBC treated (molecule of invention + cells)) is 77.28%; in the experiment with WBC (white blood cells) (30 min, Well treated (molecule of invention bound to surface)), 21.64%; in the experiment with WBC (white blood cells) (90 min, WBC treated (molecule of invention + cells)) it was 83.12% and 83.1%; with WBC (white blood cells) (90 min, Well treated (molecule of invention bound to surface)), 47.62% and 47.6%; with WBC (white blood cells) (120 min, WBC treated (molecule of invention + cells)) it was 86.23%; in the experiment with WBC (white blood cells) (120 min, Well treated (molecule of invention bound to surface)), 57.02%. In addition, the “MW (mean WBC per well)” value in the experiment on WBC (white blood cells) (30 min, WBC treated) is 231829.75; in the experiment on WBC (white blood cells) (30 min, Well treated) it was 64909; with WBC (white blood cells) (90 min, WBC treated) it was 249346.25; in the experiment with WBC (white blood cells) (90 min, Well treated), 142865; in the experiment with WBC (white blood cells) (120 min, WBC treated) it was 258692.75; in the experiment with WBC (white blood cells) (120 min, Well treated) it was 171062.75.

With “5′-(Cholesteryl-TEG)2-Spacer C12-dT-Biotin_TEG-3′ INVERS [29.891253]”, the “WBC per well” value in the experiment on white blood cells (WBCs) (setting [1]) was 105061 and 128195 and 139678; with white blood cells (WBCs) (setting [2]) it was 218861 and 221471 and 208802; with white blood cells (WBCs) (setting [3]), 178919 and 197130 and 187224; with white blood cells (WBCs) (setting [4]), 239105 and 240632 and 231420. The “Mean (WBC per well)” value amounted to 187757.67 in the experiment on white blood cells (WBCs) (setting [3]) and 237052.33 in the experiment with white blood cells (WBCs) (setting [4]).

Regarding “5′-Cholesteryl-TEG-PEG2000-Fluos-3′ [BMO 29.891132]”, the “Labelling (staining) of MDA-MB468” value in the experiment on MDA-MB468 is listed as “√”. The “Labelling (staining) of Epithelial cells” value in the experiment with Epithelial cells is “√”. Besides, the “Labelling (staining) of WBCs” value in the experiment on WBCs is listed as “√ not all”. Moreover, the “Labelling (staining) of U937” value with U937 was “√”.

For the compound “5′-CholesterylTEG-CholesterylTEG-(SpacerC18)7-Fluos-BiotinTEG-3′ [BMO 29.891222_Ch03]”, the “WBC recovery rate after centrifugation, dependence on concentration” value with WBC is given as “The higher the molecule concentration, the higher the cell recovery rate after centrifugation”; in the experiment on WBC (listed as molecule A) it was “The higher the molecule concentration, the higher the cell recovery rate after centrifugation”. Besides, the “Cell stabilization with different experimenters” value with WBC (Experimenters 1, 2 and 3) is given as “cell stabilization is independent on the experimenter”.

Consider “5′-alphaTocopherolTEG-PEG2000-Fluos-3′ [BMO 29.891131]”, for which the “Labelling (staining) of MDA-MB468” value in the experiment on MDA-MB468 is “√”. For the same compound, the “Labelling (staining) of Epithelial cells” value with Epithelial cells was “√”. Besides, the “Labelling (staining) of WBCs” value in the experiment with WBCs is “√ not all”. The “Labelling (staining) of U937” value in the experiment with U937 is “√”.

For the compound `CCCCCCCCCCCCCCCC(=O)OC[C@H](COP(=O)(O)OCCNC(=O)CCc1ccc2n1[B-](F)(F)[N+]1=C(C)C=C(C)C1=C2)OC(=O)CCCCCCCCCCCCCCC.CCN(CC)CC` [Phosphatidylethanolamine, N-(4,4-difluoro-5,7-dimethyl-4-bora-3a,4a-diaza-s-indacene-3-propionyl)-1,2-dihexadecanoyl-sn-glycero-3-phosphoethanolamine, triethylammonium salt], the “Labelling (staining) of Hela” value with Hela was “x/√ very weak”.

For `CCCCCCCCCCCCC/C=C/[C@@H](O)[C@H](COP(=O)([O-])OCC[N+](C)(C)C)NC(=O)CCCCc1ccc2n1[B-](F)(F)[N+]1=C(C)C=C(C)C1=C2` [Sphingomyelin, N-(4,4-difluoro-5,7-dimethyl-4-bora-3a,4a-diaza-s-indacene-3-pentanoyl)sphingosyl phosphocholine], the “Labelling (staining) of Hela” value in the experiment on Hela is recorded as “√”. Further, the “Labelling (staining) of Epithelial cells” value in the experiment on Epithelial cells is reported as “√”. Moreover, the “Labelling (staining) of WBCs” value in the experiment on WBCs was “(x)- very bad”. Further, the “Labelling (staining) of CHO” value with CHO is recorded as “x very weak”.

For Biotin-PEG-Lysin-(C18)2, in the experiment on WBC (listed as molecule B), the “WBC recovery rate after centrifugation, dependence on concentration” value is recorded as “The higher the molecule concentration, the higher the cell recovery rate after centrifugation”.

As to “Sulfo-JA133-phenylboronic acid [BMO: 15.000078]”, the “Labelling (staining) of Epithelial cells” value in the experiment on Epithelial cells was “√”. Further, the “Labelling (staining) of WBCs” value in the experiment on WBCs is on record as “√ not all”.
